Measurements taken from patent US20240150368A1, “ULK INHIBITORS AND METHODS OF USE THEREOF” (Deciphera Pharmaceuticals, LLC, priority 2022, published 2024).
pIC50: −log10 of the molar value.

Experiments:
ULK1 kinase = molecular target: T1, ULK1 kinase (Homo sapiens, UniProt O75385, E37A/K38A); test: Biochemical assay for ULK1 (coupled pyruvate kinase/lactate dehydrogenase assay); settings: 1 mM ATP, 0.1 nM ULK1; read-out: ULK1 (inhibition of biochemical activity), IC50
T1 construct: (residues 1-283; ID NO: 1); purchased Beryllium
T1 sequence (O75385 1-283 E37A/K38A): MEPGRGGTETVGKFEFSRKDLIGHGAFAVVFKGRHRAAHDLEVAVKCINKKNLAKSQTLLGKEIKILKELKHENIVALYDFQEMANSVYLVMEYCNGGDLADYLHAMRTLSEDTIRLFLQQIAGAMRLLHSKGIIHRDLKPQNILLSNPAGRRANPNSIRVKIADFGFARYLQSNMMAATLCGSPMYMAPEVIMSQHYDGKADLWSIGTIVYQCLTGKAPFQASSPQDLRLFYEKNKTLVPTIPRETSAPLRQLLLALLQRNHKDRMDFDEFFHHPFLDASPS
Description: Biochemical Assay for ULK1 (SEQ. ID NO: 1)
Activity of ULK1 kinase was determined spectroscopically using a coupled pyruvate kinase/lactate dehydrogenase assay that continuously monitors the ATP hydrolysis-dependent oxidation of NADH (e.g., Schindler et al. Science (2000) 289: 1938-1942). Assays were conducted in 384-well plates (100 μL final volume) using 0.1 nM ULK1 (from Beryllium), 0.075 mM peptide substrate (YANWLAASIYLDGKKK), 1.5 units pyruvate kinase, 2.1 units lactate dehydrogenase, 1 mM phosphoenol pyruvate, 0.28 mM NADH and 1 mM ATP in assay buffer (100 mM Tris, pH 7.5, 15 mM MgCl2, 0.5 mM DTT, 0.004% (w/v) BSA, and 0.004% Triton X-100). Inhibition of ULK1 was measured by adding serial diluted test compound (final assay concentration of 1% DMSO). A decrease in absorption at 340 nm was monitored continuously for 6 h at 30° C. on a multi-mode microplate reader (BioTek). The reaction rate was calculated using the 2-3 h time frame. The reaction rate at each concentration of compound was converted to percent inhibition using controls (i.e., reaction with no test compound and reaction with a known inhibitor) and IC50 values were calculated using software routines in Prism (GraphPad software).

[1] = tested on: ULK kinase substrate ATG13 (pS318-ATG13) in MiaPaCa-2 cells; test: pATG13 levels of mutant KRas MiaPaCa-2 cells after treatment with ULK inhibitors in combination with trametinib (ELISA); format: cell-based, human
Description: pATG13 Levels of Mutant KRas MiaPaCa-2 Cells after Treatment with ULK Inhibitors in Combination with Trametinib
(§1) MiaPaCa-2 human pancreatic cancer cells (10000 cells/well) were added to a 384-well tissue-culture treated plate in 50 μL of pre-warmed DMEM medium supplemented with 10% characterized fetal bovine serum (Invitrogen, Carlsbad, CA), 100 units/mL penicillin G, 100 μg/mL streptomycin, and 2.5% Horse Serum and allowed to grow overnight at 37° C., 5% CO2, and 95% humidity. The following day, 10 μL of media containing trametinib or DMSO as a control was added to wells. The final concentration of trametinib in wells was 250 nM. A dose response of a test compound (0.6 μL per well) was added. DMSO (0.6 μL) was added to control wells. The plate was briefly shaken to mix wells and then incubated at 37° C. overnight. The next day, the media was aspirated and cells were washed with Dulbecco's Phosphate Buffered Saline (Gibco). Cells were lysed using MPER lysis buffer (Pierce, Rockford, IL) containing Halt Phosphatase and Protease Inhibitors (Pierce, Rockford, IL) and Phosphatase inhibitor cocktail 2 (Sigma, St. Louis, MO) at 4° C. for 10 minutes with shaking.
(§2) Cellular levels of phospho-Serine 318 ATG13 (pATG13) were measured via an ELISA method. Total ATG13 Antibody (Cell Signaling Cat #13273) was used to coat the wells. The plate was incubated at 4° C. overnight and washed with ELISA wash buffer (Biolegend Cat #421601). The wells were then blocked with assay diluent (Biolegend Cat #421203) for 1 h at rt. Plate wells were washed with ELISA wash buffer. Cell lysate was added to wells and incubated at rt for 2 h. Plate wells were washed with ELISA wash buffer. Biotinylated pS318-ATG13 antibody (Rockland Immunochemicals Cat #600-401-C49) was diluted in assay diluent and added to each well and incubated at rt for 1 h. Plate wells were washed with ELISA wash buffer. Streptavidin linked to horseradish peroxidase (Thermo Fisher Cat #21140) was diluted in assay diluent and added to each well and incubated at rt for 1 h. Plate wells were washed with ELISA wash buffer. High sensitivity TMB substrate (Biolegend Cat #421101) was added to each well and incubated at rt for 20 min. The reaction was stopped with 2.0N sulfuric acid. The plate was analyzed at on a plate reader measuring absorbance at 450 nm and 540 nm (background). Signal was calculated by first subtracting the background absorbance at 540 nm from the absorbance at 450 nm for each well. Next, the background corrected absorbance at 450 nm from blank wells was subtracted from test wells. Data was compared to control wells to determine % ATG13 phosphorylation. GraphPad Prism was used to calculate IC50 values.

[2] = tested on: ULK kinase substrate ATG13 (pS318-ATG13) in A549 (KRAS mutant) cells; test: pATG13 levels of mutant KRas A549 cells after treatment with ULK inhibitors in combination with trametinib (ELISA); format: cell-based, human
Description: Cellular Inhibition of ULK Kinase Substrate ATG13 Protein pATG13 Levels of Mutant KRas A549 Cells after Treatment with ULK Inhibitors in Combination with Trametinib
as §1, with “A549 (KRAS mutant)” for “MiaPaCa-2”, “lung” for “pancreatic”, “(6,000” for “(10000”, “G, and” for “G,”, “streptomycin” for “streptomycin, and 2.5% Horse Serum”, “min” for “minutes”
as §2, with “2N Sulfuric Acid.” for “2.0N sulfuric acid.”

LRRK2 kinase = molecular target: T2, LRRK2 kinase (Homo sapiens, UniProt Q5S007); test: Biochemical assay for LRRK2 (coupled pyruvate kinase/lactate dehydrogenase assay); settings: 26.4 nM LRRK2, 1 mM ATP; read-out: LRRK2 (inhibition of LRRK2 kinase activity, IC50)
T2 construct: (residues 970-2528; ID NO; 3); purchased Thermo Fisher
T2 sequence (Q5S007 with tags, fused parts or gaps): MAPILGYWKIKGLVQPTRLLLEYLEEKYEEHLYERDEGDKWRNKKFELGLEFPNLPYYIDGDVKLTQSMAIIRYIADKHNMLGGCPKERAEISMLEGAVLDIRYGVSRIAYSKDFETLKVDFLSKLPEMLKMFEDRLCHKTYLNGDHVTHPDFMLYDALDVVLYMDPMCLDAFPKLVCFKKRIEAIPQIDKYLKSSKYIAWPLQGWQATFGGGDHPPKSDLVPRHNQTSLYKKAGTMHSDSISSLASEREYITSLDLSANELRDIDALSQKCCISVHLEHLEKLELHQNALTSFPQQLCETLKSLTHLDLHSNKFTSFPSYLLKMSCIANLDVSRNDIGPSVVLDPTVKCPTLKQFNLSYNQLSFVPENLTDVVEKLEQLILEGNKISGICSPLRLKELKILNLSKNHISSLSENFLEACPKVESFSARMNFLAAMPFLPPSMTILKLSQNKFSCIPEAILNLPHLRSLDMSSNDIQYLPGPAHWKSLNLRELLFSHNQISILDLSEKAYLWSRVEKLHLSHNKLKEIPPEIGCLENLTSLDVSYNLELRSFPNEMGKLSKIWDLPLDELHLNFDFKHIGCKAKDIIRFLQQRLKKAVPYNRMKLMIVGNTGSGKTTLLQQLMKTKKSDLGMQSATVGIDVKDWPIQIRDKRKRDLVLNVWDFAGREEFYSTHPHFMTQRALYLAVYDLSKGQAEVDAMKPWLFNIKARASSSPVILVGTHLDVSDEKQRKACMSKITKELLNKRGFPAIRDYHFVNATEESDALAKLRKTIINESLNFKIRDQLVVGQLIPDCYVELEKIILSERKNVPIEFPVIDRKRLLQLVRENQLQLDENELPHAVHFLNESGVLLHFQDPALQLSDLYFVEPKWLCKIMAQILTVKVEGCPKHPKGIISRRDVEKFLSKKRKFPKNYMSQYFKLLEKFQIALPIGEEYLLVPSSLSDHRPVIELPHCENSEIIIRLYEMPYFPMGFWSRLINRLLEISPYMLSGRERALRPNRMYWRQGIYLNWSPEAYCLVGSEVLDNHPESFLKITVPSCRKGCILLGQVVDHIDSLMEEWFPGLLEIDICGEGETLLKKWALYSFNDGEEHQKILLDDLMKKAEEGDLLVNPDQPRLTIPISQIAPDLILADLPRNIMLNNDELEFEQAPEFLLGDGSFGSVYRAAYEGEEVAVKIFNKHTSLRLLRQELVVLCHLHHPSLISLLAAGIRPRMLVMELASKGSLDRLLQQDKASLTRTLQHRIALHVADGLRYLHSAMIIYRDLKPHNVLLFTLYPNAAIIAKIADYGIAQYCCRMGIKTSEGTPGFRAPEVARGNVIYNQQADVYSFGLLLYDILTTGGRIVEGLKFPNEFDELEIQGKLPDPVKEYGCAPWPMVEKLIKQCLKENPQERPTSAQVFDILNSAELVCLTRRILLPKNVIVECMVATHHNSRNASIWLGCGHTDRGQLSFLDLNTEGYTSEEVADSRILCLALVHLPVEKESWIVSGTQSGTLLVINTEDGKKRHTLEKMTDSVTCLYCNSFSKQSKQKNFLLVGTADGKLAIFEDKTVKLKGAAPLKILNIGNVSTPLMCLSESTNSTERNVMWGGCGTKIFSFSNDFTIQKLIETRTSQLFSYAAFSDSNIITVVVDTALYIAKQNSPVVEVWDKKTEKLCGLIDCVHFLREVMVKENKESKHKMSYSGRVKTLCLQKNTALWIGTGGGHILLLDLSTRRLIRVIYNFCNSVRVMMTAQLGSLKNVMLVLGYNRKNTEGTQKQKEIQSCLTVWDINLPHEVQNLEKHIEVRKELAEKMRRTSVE
Description: Biochemical Assay for LRRK2 (SEQ. ID NO. 3)
Activity of LRRK2 kinase was determined spectroscopically using a coupled pyruvate kinase/lactate dehydrogenase assay that continuously monitors the ATP hydrolysis-dependent oxidation of NADH (e.g., Schindler et al. Science (2000) 289: 1938-1942). Assays were conducted in 384-well plates (100 μL final volume) using 26.4 nM LRRK2 (Thermo Fisher), 0.1 mM peptide substrate (RLGRDKYKTLRQIRQ), 1.5 units pyruvate kinase, 2.1 units lactate dehydrogenase, 1 mM phosphoenol pyruvate, 0.28 mM NADH and 1 mM ATP in assay buffer (100 mM Tris, pH 7.5, 15 mM MgCl2, 0.5 mM DTT, 0.004% (w/v) BSA, and 0.004% Triton X-100). Inhibition of LRRK2 was measured by adding serial diluted test compound (final assay concentration of 1% DMSO). A decrease in absorption at 340 nm was monitored continuously for 6 h at 30° C. on a multi-mode microplate reader (BioTek). The reaction rate was calculated using the 2-3 h time frame. The reaction rate at each concentration of compound was converted to percent inhibition using controls (i.e., reaction with no test compound and reaction with a known inhibitor) and IC50 values were calculated using software routines in Prism (GraphPad software).

ULK2 kinase = molecular target: T3, ULK2 kinase (Homo sapiens, UniProt Q8IYT8); test: Biochemical assay for ULK2 (coupled pyruvate kinase/lactate dehydrogenase assay); settings: 1 mM ATP, 1 nM ULK2; read-out: ULK2 (inhibition of biochemical activity), IC50
T3 construct: (residues 1-306 with N-terminal GST and His tag; ID NO: 2); purchased Signal Chem U02-11G
T3 sequence (Q8IYT8 with tags, fused parts or gaps): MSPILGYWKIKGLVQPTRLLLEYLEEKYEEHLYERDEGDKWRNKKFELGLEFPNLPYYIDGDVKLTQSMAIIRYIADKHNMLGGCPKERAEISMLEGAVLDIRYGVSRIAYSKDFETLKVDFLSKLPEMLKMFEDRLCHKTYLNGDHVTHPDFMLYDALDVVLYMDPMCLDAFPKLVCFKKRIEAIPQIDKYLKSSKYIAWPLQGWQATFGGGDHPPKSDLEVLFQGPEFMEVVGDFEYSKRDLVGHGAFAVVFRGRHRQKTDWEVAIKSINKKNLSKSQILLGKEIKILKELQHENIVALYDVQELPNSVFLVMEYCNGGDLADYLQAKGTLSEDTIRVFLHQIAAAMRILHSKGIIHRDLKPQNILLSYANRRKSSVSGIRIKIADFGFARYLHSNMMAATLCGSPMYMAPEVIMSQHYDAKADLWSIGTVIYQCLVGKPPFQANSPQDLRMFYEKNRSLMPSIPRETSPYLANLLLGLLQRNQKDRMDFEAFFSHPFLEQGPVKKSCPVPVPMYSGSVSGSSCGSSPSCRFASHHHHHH
Description: Biochemical Assay for ULK2 (SEQ. ID NO: 2)
Activity of ULK2 kinase was determined spectroscopically using a coupled pyruvate kinase/lactate dehydrogenase assay that continuously monitors the ATP hydrolysis-dependent oxidation of NADH (e.g., Schindler et al. Science (2000) 289: 1938-1942). Assays were conducted in 384-well plates (100 μL final volume) using 1 nM ULK2 (Signal Chem U02-11G), 200 μM ULKtide, 1.5 units pyruvate kinase, 2.1 units lactate dehydrogenase, 1 mM phosphoenol pyruvate, 0.28 mM NADH and 1 mM ATP in assay buffer (100 mM Tris, pH 7.5, 15 mM MgCl2, 0.5 mM DTT, 0.1% octyl-glucoside, 0.002% (w/v) BSA, and 0.002% Triton X-100). Inhibition of ULK2 was measured by adding serial diluted test compound (final assay concentration of 1% DMSO). A decrease in absorption at 340 nm was monitored continuously for 6 h at 30° C. on a multi-mode microplate reader (BioTek). The reaction rate was calculated using the 2-3 h time frame. The reaction rate at each concentration of compound was converted to percent inhibition using controls (i.e., reaction with no test compound and reaction with a known inhibitor) and IC50 values were calculated by fitting a four-parameter sigmoidal curve to the data using Prism (GraphPad software).

Row | SMILES | pIC50 (ULK1 kinase) | pIC50 [1] | pIC50 [2] | pIC50 (LRRK2 kinase) | pIC50 (ULK2 kinase)
1 | CC/C(Nc1cnn(C2CCN(C(C)C)CC2)c1)=C1/C(=O)Nc2ccc(C(=O)NCC3CCC3)cc21 [Example 43] | ≥ 8.00 | ≥ 7.00 | ≥ 7.00 | – | –
2 | CC/C(Nc1cccc(N2CCN(C(C)C)CC2)c1)=C1/C(=O)Nc2ccc(C(=O)NC[C@H]3CCCO3)cc21 [Example 46] | 7.00 to 8.00 | ≥ 7.00 | 6.52 to 7.00 | – | –
3 | CC/C(Nc1cnn(C(C)C)c1)=C1/C(=O)Nc2ccc(C(C)=O)cc21 [Example 177] | 6.30 to 7.00 | – | < 6.22 | ≥ 7.00 | 6.30 to 7.00
4 | CC/C(Nc1cnn(CC)c1)=C1/C(=O)Nc2ccc(C(=O)NCC3(C(F)(F)F)CC3)cc21 [Example 179] | ≥ 8.00 | – | ≥ 7.00 | ≥ 7.00 | –

Second part, the molecule after the results:

Row | pIC50 (ULK1 kinase) | pIC50 [1] | pIC50 [2] | pIC50 (LRRK2 kinase) | pIC50 (ULK2 kinase) | SMILES
5 | ≥ 8.00 | – | 6.52 to 7.00 | ≥ 7.00 | – | CC/C(Nc1cnn(C(F)F)c1)=C1/C(=O)Nc2ccc(C(=O)NCC3(C(F)(F)F)CC3)cc21 [Example 180]
6 | ≥ 8.00 | – | ≥ 7.00 | ≥ 7.00 | – | CC/C(Nc1cnn(CC(F)F)c1)=C1/C(=O)Nc2ccc(C(=O)NCC3(C(F)(F)F)CC3)cc21 [Example 181]
